Source: patent publication US20060287251A1, “Combination therapy for glycaemic control” (priority 2003, published 2006)
pKi: −log10 of the molar value.

Legend:
[1] = target: T1, DPIV (N-terminal Xaa-Pro releasing activity) in human plasma (Homo sapiens, UniProt P27487); test: Ki-determination in human plasma; assay type: biochemical
T1 construct: Human plasma contains N-terminal Xaa-Pro releasing activity; from tissue; host or cells: human plasma
Protocol: Human plasma contains N-terminal Xaa-Pro releasing activity. 70 μL glutaminyl pyrrolidine or glutaminyl thiazolidine in an concentration range of 1*10^−5 M -1*10^−7 M (glutaminyl pyrrolidine) and 1*10^−6 M-1*10^−8 M (glutaminyl thiazolidine) respectively were admixed with 50 μL glycylprolyl-4-nitroaniline in different concentrations (0.4 mM, 0.2 mM, 0.1 mM, 0,05 mM) and 100 μl HEPES (40 mM, pH7.6). The assay mixture was pre-incubated at 30 ° C. for 5 min and 22 hours respectively. After pre-incubation, 50 μL human plasma were added and measurement of yellow color development due to 4-nitroaniline release was performed at 30° C. and λ=405 nm for 10 min using a plate reader ([HTS7000 plus, Applied Biosystems, Weiterstadt, Germany). The Ki-values were calculated using Graphit 4.0.15 (Erithacus Software, Ltd, UK) based on a competitive inhibition of DPIV by glutaminyl pyrrolidine or glutaminyl thiazolidine.

diabetic Zucker rats = test: Dose escalation study with OGTT in fatty Zucker rats after oral administration; assay type: in vivo, rat
Protocol: N=30 male Zucker rats (fa/fa), mean age 11 weeks (5-12 weeks), mean body weight 350 g (150-400 g), were purchased from Charles River (Sulzfeld, Germany). After delivery they were kept for >12 weeks until nearly all fatty Zucker rats had the characteristics of manifest diabetes mellitus. A group of N=8 animals were recruited for testing three escalating doses of glutaminyl pyrrolidine vs. placebo (saline). Animals were single-caged under standardized conditions with controlled temperature (22±2° C.) on a 12/12 hours light/dark cycle (light on at 06:00 AM). Sterile standard pelleted chow (ssniff® Soest, Germany) and tap water acidified with HCl were allowed ad libitum. Fatty Zucker rats of 24-31 weeks (mean: 25 weeks) age, adapted to the housing conditions, were well prepared for the study. Catheters were implanted into the carotid artery of fatty Zucker rats under general anaesthesia (i.p. injection of 0.25 ml/kg b.w. Rompun®[2%], BayerVital, Germany and 0.5 ml/kg b.w. Ketamin 10, Atarost GmbH & Co., Twistringen, Germany). The animals were allowed to recover for one week. The catheters were flushed with heparin-saline (100 IU/ml) three times per week.
Placebo (1 ml saline, 0.154 mol/l) or escalating doses of glutaminyl pyrrolidine (5, 15 and 50 mg/kg b.w.) were administered to groups of N=8 fatty Zucker rats. 375 mg of glutaminyl pyrrolidine were dissolved in 1000 μl DMSO (E. Merck, Darmstadt; Germany [Dimethyl sulfoxide p.a.]). 10 mL saline was added and 1 ml aliquots, each containing 34.09 mg of glutaminyl pyrrolidine, were stored at −20° C. For preparation of the test substance, dose dependent aliquots were diluted in saline. After overnight fasting, placebo or test substance were administered to the fatty Zucker rats via feeding tube orally (15 G, 75 mm; Fine Science Tools, Heidelberg, Germany) at −10 min An oral glucose tolerance test (OGTT) with 2 g/kg b.w. glucose (40% solution, B. Braun Melsungen, Melsungen, Germany) was administered at ±O min via a second feeding tube. Venous blood samples from the tail veins were collected at −30 min, −15 min, ±0 min and at 5, 10, 15, 20, 30, 40, 60, 90 and 120 min into 20 lμl glass capillaries, which were placed in standard tubes filled with 1 mL solution for blood glucose measurement. All blood samples were labelled with Code number, Animal Number, Date of sampling and Time of sampling.
Glucose levels were measured using the glucose oxidase procedure (Super G Glucose analyzer; Dr. Müller Gerältebau, Freital, Germany).
Statistical evaluations and graphics were performed with PRISM® 3.02 (GraphPad Software, Inc.). All parameters were analysed in a descriptive manner including mean and SD. […]

[2] = 5, 15 and 50 mg/kg b.w. oral (dose escalation)

T1 sequence (P27487 39-766 limits assumed): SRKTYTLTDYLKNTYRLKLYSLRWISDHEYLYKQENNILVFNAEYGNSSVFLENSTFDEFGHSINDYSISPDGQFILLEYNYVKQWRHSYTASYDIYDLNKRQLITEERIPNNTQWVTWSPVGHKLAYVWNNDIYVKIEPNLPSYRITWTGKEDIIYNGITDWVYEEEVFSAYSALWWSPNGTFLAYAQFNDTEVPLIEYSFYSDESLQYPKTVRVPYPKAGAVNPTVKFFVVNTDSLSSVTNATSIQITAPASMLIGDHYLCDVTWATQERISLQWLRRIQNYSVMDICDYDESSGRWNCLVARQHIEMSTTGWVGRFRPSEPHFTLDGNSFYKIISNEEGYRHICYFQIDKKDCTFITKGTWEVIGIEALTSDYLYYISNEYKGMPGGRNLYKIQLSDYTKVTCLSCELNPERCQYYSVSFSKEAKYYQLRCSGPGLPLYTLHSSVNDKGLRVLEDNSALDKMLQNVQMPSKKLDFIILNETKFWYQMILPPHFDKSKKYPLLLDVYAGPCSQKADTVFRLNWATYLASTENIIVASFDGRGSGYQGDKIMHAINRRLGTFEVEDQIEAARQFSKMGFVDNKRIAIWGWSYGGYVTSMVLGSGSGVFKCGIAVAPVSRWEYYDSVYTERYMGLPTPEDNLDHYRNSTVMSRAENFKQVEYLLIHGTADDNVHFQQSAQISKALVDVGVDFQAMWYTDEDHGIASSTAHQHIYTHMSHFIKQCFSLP

SMILES | pKi ([1]; after 5 min pre-incubation) | pKi ([1]; after 22 hours pre-incubation) | glucose tolerance in OGTT (diabetic Zucker rats; 5 mg/kg b.w. oral, OGTT 2 g/kg glucose) | blood glucose levels and glucose tolerance in OGTT (diabetic Zucker rats; 15 mg/kg and 50 mg/kg b.w. oral, OGTT 2 g/kg glucose) | blood glucose levels and glucose tolerance in OGTT (diabetic Zucker rats; [2])
NC(=O)CC[C@H](N)C(=O)N1CCCC1 [glutaminyl pyrrolidine] | 5.89 | 5.87 | limited improvement of glucose tolerance | Significant lowering of elevated blood glucose levels and improvement of glucose tolerance | dose dependent lowering of elevated blood glucose levels
NC(=O)CC[C@H](N)C(=O)N1CCSC1 [glutaminyl thiazolidine] | 6.39 | 6.29 |  |  | dose dependent lowering of elevated blood glucose levels and improvement of glucose tolerance
